Laboratory results from ChEMBL document CHEMBL1158846, “Three new bistetrahydrofuran acetogenins from the seeds of Annona spinescens” (J Nat Prod, 1998).
In brackets after ≈: the same amount, converted by molar mass.

Legend:
[1] = system: KB; assay: Cytotoxicity against human KB cells; assay type: functional
[2] = Cytotoxicity against african green monkey Vero cells; assay type: cell-based; settings: chlorocebus sabaeus, read-out: ED50 (the source's name)

Structure (SMILES)	ED50 [1]	CC50 [2] [ng/mL]
CCCCCCC(O)CCC[C@H](O)[C@@H]1CC[C@@H]([C@@H]2CC[C@H]([C@H](O)CCCCCCCCCCCCC3=C[C@H](C)OC3=O)O2)O1 (stereo not given in full) [CAROLIN A]	1 ×10⁻⁷ ug/ml	2 (≈ 3.21 nM)
CCCCCC(O)CCCC[C@H](O)[C@@H]1CC[C@@H]([C@@H]2CC[C@H]([C@H](O)CCCCCCCCCCCCC3=C[C@H](C)OC3=O)O2)O1 (stereo not given in full) [CAROLIN B]	5 ×10⁻⁶ ug/ml	3.7 (≈ 5.94 nM)
CCCCCCC(O)CCC[C@H](O)[C@@H]1CC[C@@H]([C@@H]2CC[C@H]([C@H](O)CCCCCCCCCCC3=C[C@H](C)OC3=O)O2)O1 (stereo not given in full) [CAROLIN C]	2 ×10⁻⁴ ug/ml	50 (≈ 84.1 nM)
CCCCCC(O)C(O)CCC[C@H](O)[C@H]1CC[C@@H]([C@@H]2CC[C@@H]([C@@H](O)CCCCCCCCCCCCC3=C[C@H](C)OC3=O)O2)O1 (stereo not given in full) [SPINENCIN]	1 ×10⁻⁵ ug/ml	6 (≈ 9.39 nM)
CCCCCC[C@H](O)CCC[C@H](O)[C@H]1CC[C@H]([C@H]2CC[C@H]([C@H](O)CCCCCCCCCCCCC3=C[C@H](C)OC3=O)O2)O1 [SQUAMOCIN]	4 ×10⁻⁴ ug/ml	10 (≈ 16.1 nM)
